In US20260262643A1, “HERBICIDAL BENZOXAZINES” (FMC CORPORATION, priority 2022, published 2026):

What was measured:
[1] = test system: ryegrass, Italian; assay: Test C preemergence; format: in vivo, Lolium multiflorum; conditions: Preemergence, 1000 g ai/ha; visual rating after 10 days, 0 to 100 scale (0 no effect, 100 complete control)
From the text: (§1) Seeds of plant species selected from barnyardgrass (Echinochloa crusgalli), blackgrass (Alopecurus myosuroides), corn (Zea mays), foxtail, giant (giant foxtail, Setaria faberi), green foxtail (Setaria viridis), goosegrass (Eleusine indica), kochia (Bassia scoparia), oat, wild (wild oat, Avena fatua), pigweed, palmer (palmer amaranth, palmer pigweed, Amaranthus palmeri), Pigweed, Redroot (redroot pigweed, Amaranthus retroflexus), ragweed (common ragweed, Ambrosia artemisiifolia), ryegrass, Italian ([…] ryegrass, Lolium multiflorum), soybean (Glycine max), and wheat (Triticum aestivum) were planted into a blend of loam soil and sand and treated preemergence with a directed soil spray using test chemicals formulated in a non-phytotoxic solvent mixture which included a surfactant. At the same time, plants selected from these crops and weed species and also galium (catchweed bedstraw, Galium aparine) and horseweed (Erigeron canadensis) were planted in pots containing the same blend of loam soil and sand and treated with postemergence applications of test chemicals formulated in the same manner. Plants ranged in height from 2 to 10 cm and were in the one- to two-leaf stage for the postemergence treatment. Treated plants and untreated controls were maintained in a greenhouse for 10 days, after which time all treated plants were compared to untreated controls and visually evaluated for injury. Plant response ratings, summarized in Table C, are based on a 0 to 100 scale where 0 is no effect and 100 is complete control. A dash (-) response means no test result.

[2] = test system: ragweed; assay: Test C preemergence; format: in vivo, Ambrosia artemisiifolia; conditions: Preemergence, 1000 g ai/ha; visual rating after 10 days, 0 to 100 scale (0 no effect, 100 complete control)
From the text: as §1

[3] = test system: blackgrass; assay: Test C postemergence; format: in vivo, Alopecurus myosuroides; conditions: Postemergence, 1000 g ai/ha
From the text: as §1

[4] = test system: galium; assay: Test C postemergence; format: in vivo, Galium aparine; conditions: Postemergence, 1000 g ai/ha
From the text: as §1

[5] = test system: ryegrass, Italian; assay: Test C postemergence; format: in vivo, Lolium multiflorum; conditions: Postemergence, 1000 g ai/ha
From the text: as §1

[6] = test system: barnyardgrass; assay: Test C preemergence; format: in vivo, Echinochloa crusgalli; conditions: Preemergence, 1000 g ai/ha; visual rating after 10 days, 0 to 100 scale (0 no effect, 100 complete control)
From the text: as §1

[7] = test system: barnyardgrass; assay: Test C postemergence; format: in vivo, Echinochloa crusgalli; conditions: Postemergence, 1000 g ai/ha
From the text: as §1

[8] = test system: green foxtail; assay: Test C preemergence; format: in vivo, Setaria viridis; conditions: Preemergence, 1000 g ai/ha; visual rating after 10 days, 0 to 100 scale (0 no effect, 100 complete control)
From the text: as §1

[9] = test system: pigweed, palmer; assay: Test C preemergence; format: in vivo, Amaranthus palmeri; conditions: Preemergence, 1000 g ai/ha; visual rating after 10 days, 0 to 100 scale (0 no effect, 100 complete control)
From the text: as §1

[10] = test system: pigweed, palmer; assay: Test C postemergence; format: in vivo, Amaranthus palmeri; conditions: Postemergence, 1000 g ai/ha
From the text: as §1

[11] = test system: horseweed; assay: Test C postemergence; format: in vivo, Erigeron canadensis; conditions: Postemergence, 1000 g ai/ha
From the text: as §1

[12] = test system: ragweed; assay: Test C postemergence; format: in vivo, Ambrosia artemisiifolia; conditions: Postemergence, 1000 g ai/ha
From the text: as §1

[13] = test system: kochia; assay: Test C preemergence; format: in vivo, Bassia scoparia; conditions: Preemergence, 1000 g ai/ha; visual rating after 10 days, 0 to 100 scale (0 no effect, 100 complete control)
From the text: as §1

[14] = test system: blackgrass; assay: Test C preemergence; format: in vivo, Alopecurus myosuroides; conditions: Preemergence, 1000 g ai/ha; visual rating after 10 days, 0 to 100 scale (0 no effect, 100 complete control)
From the text: as §1

[15] = test system: green foxtail; assay: Test C postemergence; format: in vivo, Setaria viridis; conditions: Postemergence, 1000 g ai/ha
From the text: as §1

[16] = test system: kochia; assay: Test C postemergence; format: in vivo, Bassia scoparia; conditions: Postemergence, 1000 g ai/ha
From the text: as §1

[17] = 0 to 100 scale, 0 no effect, 100 complete control
[18] = 10 days, visual 0 to 100 scale (0 no effect, 100 complete control)

SMILES | Plant response rating, Ryegrass, Italian [1] | Plant response rating, Ragweed [2] | Plant response rating, Barnyardgrass [6] | Plant response rating, Barnyardgrass [7, 17] | Plant response rating, Foxtail, Green [8] | Plant response rating, Pigweed, Palmer [9] | Plant response rating, Kochia [13] | Plant response rating, Blackgrass [14] | Plant response rating, Blackgrass [3, 18] | Plant response rating, Galium [4, 18] | Plant response rating, Ryegrass, Italian [5, 18] | Plant response rating, Pigweed, Palmer [10, 18] | Plant response rating, Horseweed [11, 18] | Plant response rating, Ragweed [12, 18] | Plant response rating, Foxtail, Green [15, 18] | Plant response rating, Kochia [16, 18] | other results
Cc1ncc(-c2cccc(C(=O)N3C[C@H](C)Oc4c(C)cccc43)c2)cn1 [Compound 161] | 80 | 80 | 50 | 10 | 70 | 0 | 30 | 0 |  |  |  |  |  |  |  |  | Plant response rating, Blackgrass [3, 17]: 50; Plant response rating, Galium [4, 17]: 50; Plant response rating, Ryegrass, Italian [5, 17]: 20; Plant response rating, Pigweed, Palmer [10, 17]: 0; Plant response rating, Horseweed [11, 17]: 10; Plant response rating, Ragweed [12, 17]: 50; Plant response rating, Foxtail, Green [15, 17]: 10; Plant response rating, Kochia [16, 17]: 30
Cc1ccc(-c2cccc(C(=O)N3C[C@H](C)Oc4c(C)cccc43)c2)s1 [Compound 244] | 90 | 50 | 50 | 20 | 50 | 0 | 0 | 0 | 20 | 60 | 80 | 60 | 90 | 20 | 20 | 50 | 
C[C@H]1CN(C(=O)c2cccc(-c3cncc(Cl)c3)c2)c2cccc(Cl)c2O1 [Compound 384] | 0 | 0 | 0 |  | 30 | 30 | 0 | 0 | 10 | 40 | 0 | 60 | 0 | 0 | 10 | 50 | Plant response rating, Barnyardgrass [7, 18]: 10
Cc1cnc(-c2cccc(C(=O)N3C[C@H](C)Oc4c(C)cccc43)c2)s1 [Compound 243] | 70 | 30 | 60 | 10 | 70 | 0 | 0 | 0 | 0 | 60 | 50 | 60 | 40 | 0 | 0 | 10 | 
C[C@H]1CN(C(=O)c2cccc(-c3ccn(C)n3)c2)c2cccc(Cl)c2O1 [Compound 205] | 40 | 0 | 0 | 10 | 40 | 60 | 50 | 0 | 30 | 0 | 40 | 30 | 0 | 20 | 30 | 50 | 
COc1ccc(-c2cccc(C(=O)N3C[C@H](C)Oc4c(Cl)cccc43)c2)cn1 [Compound 385] | 50 | 0 | 30 |  | 90 | 50 | 0 | 0 | 30 | 60 | 10 | 70 | 0 | 50 | 20 | 70 | Plant response rating, Barnyardgrass [7, 18]: 20
Cc1cnc(-c2cccc(C(=O)N3C[C@H](C)Oc4c(C)cccc43)c2)cn1 [Compound 162] | 70 | 0 | 60 | 10 | 90 | 30 | 0 | 30 |  |  |  |  |  |  |  |  | Plant response rating, Blackgrass [3, 17]: 0; Plant response rating, Galium [4, 17]: 50; Plant response rating, Ryegrass, Italian [5, 17]: 40; Plant response rating, Pigweed, Palmer [10, 17]: 20; Plant response rating, Horseweed [11, 17]: 0; Plant response rating, Ragweed [12, 17]: 20; Plant response rating, Foxtail, Green [15, 17]: 10; Plant response rating, Kochia [16, 17]: 70
Cc1cc(-c2cccc(C(=O)N3C[C@H](C)Oc4c(C)cccc43)c2)cnn1 [Compound 209] | 30 | 0 | 0 | 0 | 0 | 0 | 0 | 0 | 0 | 40 | 0 | 0 | 20 | 0 | 0 | 0 | 
